Reference: patent publication US11098052B2, “4-azapodophylotoxins compounds” (Arizona Board of Regents on behalf of Arizona State …, priority 2016, dated 2021)
In brackets after ≈: the same amount, converted by molar mass. Where two headings read alike, the source gives them in different places.

Tests used:
[1] = tested on: P388 murine lymphocytic leukemia cell line; assay: Murine P388 lymphocytic leukemia inhibitory activity; type: cell-based; conditions: Mus musculus
[2] = tested on: BXPC-3 (pancreas); assay: Human cancer cell growth inhibition, sulforhodamine B assay, BXPC-3; type: cell-based; conditions: read-out: Growth Inhibition of Human Cancer Cell Lines (GI50), BXPC-3
Description: (§1) Cancer Cell Line Procedures. The human cancer cell growth inhibition data were determined using the standard sulforhodamine B assay of the US National Cancer Institute as previously described.^35 In short, cells in a 5% fetal bovine serum/RPMI1640 medium were inoculated in 96-well plates and incubated for 24 h. Next, serial dilutions of the samples were added. After 48 h, the plates were fixed with trichloroacetic acid, stained with sulforhodamine B, and read with an automated microplate reader. A growth inhibition of 50% (GI50 or the drug concentration causing a 50% reduction in the net protein increase) was determined from optical density data employing Immunosoft® software.

[3] = tested on: MCF-7 (breast); assay: Human cancer cell growth inhibition, sulforhodamine B assay, MCF-7; type: cell-based; conditions: read-out: Growth Inhibition of Human Cancer Cell Lines (GI50), MCF-7
Description: as §1

[4] = tested on: SF-268 (CNS); assay: Human cancer cell growth inhibition, sulforhodamine B assay, SF-268; type: cell-based; conditions: read-out: Growth Inhibition of Human Cancer Cell Lines (GI50), SF-268
Description: as §1

[5] = tested on: NCI-H460 (lung); assay: Human cancer cell growth inhibition, sulforhodamine B assay, NCI-H460; type: cell-based; conditions: read-out: Growth Inhibition of Human Cancer Cell Lines (GI50), NCI-H460
Description: as §1

[6] = tested on: KM20L2 (colon); assay: Human cancer cell growth inhibition, sulforhodamine B assay, KM20L2; type: cell-based; conditions: read-out: Growth Inhibition of Human Cancer Cell Lines (GI50), KM20L2
Description: as §1

[7] = tested on: DU-145 (prostate); assay: Human cancer cell growth inhibition, sulforhodamine B assay, DU-145; type: cell-based; conditions: read-out: Growth Inhibition of Human Cancer Cell Lines (GI50), DU-145
Description: as §1

[8] = P388, read-out: Murine P388 Lymphocytic Leukemia Inhibitory Activity (ED50)

IC50 ([1]; P388 cell line, read-out: Murine P388 Lymphocytic Leukemia Inhibitory Activity (ED50)) [µg/mL] | GI50 ([2]; BXPC-3 pancreas, 48 h, sulforhodamine B) [µg/mL] | GI50 ([3]; MCF7, MCF-7 breast, 48 h, sulforhodamine B) [µg/mL] | GI50 ([4]; SF-268 CNS, 48 h, sulforhodamine B) [µg/mL] | GI50 ([5]; NCI-H460 lung, 48 h, sulforhodamine B) [µg/mL] | GI50 ([6]; KM-20L2, KM20L2 colon, 48 h, sulforhodamine B) [µg/mL] | GI50 ([7]; DU-145 prostate, 48 h, sulforhodamine B) [µg/mL] | SMILES | IC50 [1, 8] [µg/mL] | GI50 ([2]; BXPC-3, 48 h) [µg/mL] | GI50 ([3]; MCF7, 48 h) [µg/mL] | GI50 ([4]; SF-268, 48 h) [µg/mL] | GI50 ([5]; NCI-H460, 48 h) [µg/mL] | GI50 ([6]; KM-20L2, 48 h) [µg/mL] | GI50 ([7]; DU-145, 48 h) [µg/mL] | melting point
 |  |  |  |  |  |  | COc1cc(C2C3=C(COC3=O)N(C3CCCC3)c3cc4c(cc32)OCO4)cc(OC)c1OC (centres unmarked) [Compound 18, 6,7-Methylenedioxy-4-(cyclopentyl)-9-(3,4,5-trimethoxyphenyl)-4,9-dihydro-3H-furo[3,4-b]quinolin-1-one] | 15.3 (≈ 32.9 µM) | 0.083 (≈ 0.178 µM) | 0.045 (≈ 0.0967 µM) | 0.062 (≈ 0.133 µM) | 0.16 (≈ 0.344 µM) | 0.12 (≈ 0.258 µM) | 0.27 (≈ 0.58 µM) | 221 to 223 °C
 |  |  |  |  |  |  | COc1cc(C2C3=C(COC3=O)N(C3CCCCC3)c3cc4c(cc32)OCO4)cc(OC)c1OC (centres unmarked) [Compound 19, 6,7-Methylenedioxy-4-(cyclohexyl)-9-(3,4,5-trimethoxyphenyl)-4,9-dihydro-3H-furo[3,4-b]quinolin-1-one] | 3.4 (≈ 7.09 µM) | 0.17 (≈ 0.355 µM) | 0.052 (≈ 0.108 µM) | 0.066 (≈ 0.138 µM) | 0.27 (≈ 0.563 µM) | 0.24 (≈ 0.5 µM) | 0.27 (≈ 0.563 µM) | 235 to 237 °C
1.7 (≈ 3.34 µM) | 4.4 (≈ 8.65 µM) | > 10 | > 10 | > 10 | > 10 | > 10 | COc1cc(C2C3=C(COC3=O)N(CCN3CCCCC3)c3cc4c(cc32)OCO4)cc(OC)c1OC (centres unmarked) [Compound 21, 6,7-Methylenedioxy-4-(2-piperidin-1-yl-ethyl)-9-(3,4,5-trimethoxyphenyl)-4,9-dihydro-3H-furo[3,4-b]quinolin-1-one] |  |  |  |  |  |  |  | 170 °C (dec.)
 |  |  |  |  |  |  | COc1cc(C2C3=C(COC3=O)N(CCN3CCOCC3)c3cc4c(cc32)OCO4)cc(OC)c1OC (centres unmarked) [Compound 22, 6,7-Methylenedioxy-4-(2-morpholin-4-yl-ethyl)-9-(3,4,5-trimethoxyphenyl)-4,9-dihydro-3H-furo[3,4-b]quinolin-1-one] | 2.6 (≈ 5.09 µM) | 3.5 (≈ 6.86 µM) | 0.89 (≈ 1.74 µM) | 2.6 (≈ 5.09 µM) | 3 (≈ 5.88 µM) | 2.5 (≈ 4.9 µM) | 2 (≈ 3.92 µM) | 186 to 189 °C
 |  |  |  |  |  |  | COc1cc(C2C3=C(COC3=O)N(Cc3ccc(F)cc3)c3cc4c(cc32)OCO4)cc(OC)c1OC (centres unmarked) [Compound 23, 6,7-Methylenedioxy-4-(4-fluoro-benzyl)-9-(3,4,5-trimethoxyphenyl)-4,9-dihydro-3H-furo[3,4-b]quinolin-1-one] | 1.9 (≈ 3.76 µM) | 0.046 (≈ 0.091 µM) | 0.037 (≈ 0.0732 µM) | 0.03 (≈ 0.0593 µM) | 0.031 (≈ 0.0613 µM) | 0.033 (≈ 0.0653 µM) | 0.047 (≈ 0.093 µM) | 246 to 247 °C
 |  |  |  |  |  |  | COc1cc(C2C3=C(COC3=O)N(CCc3ccccn3)c3cc4c(cc32)OCO4)cc(OC)c1OC (centres unmarked) [Compound 24, 6,7-Methylenedioxy-4-(2-pyridin-2-yl-ethyl)-9-(3,4,5-trimethoxyphenyl)-4,9-dihydro-3H-furo[3,4-b]quinolin-1-one] | 2.5 (≈ 4.97 µM) | 0.38 (≈ 0.756 µM) | 0.32 (≈ 0.637 µM) | 0.33 (≈ 0.657 µM) | 0.34 (≈ 0.677 µM) | 0.29 (≈ 0.577 µM) | 0.42 (≈ 0.836 µM) | 239 to 241 °C
 |  |  |  |  |  |  | COc1cc(C2C3=C(COC3=O)Nc3cc4c(cc32)OCO4)cc(OC)c1O (centres unmarked) [Compound 29, 6,7-Methylenedioxy-9-(4-hydroxy-3,5-dimethoxy-phenyl)-4,9-dihydro-3H-furo[3,4-b]quinolin-1-one] | 0.028 (≈ 0.073 µM) | 0.028 (≈ 0.073 µM) | 0.025 (≈ 0.0652 µM) | 0.026 (≈ 0.0678 µM) | 0.027 (≈ 0.0704 µM) | 0.032 (≈ 0.0835 µM) | 0.033 (≈ 0.0861 µM) | 
 |  |  |  |  |  |  | COc1cc(C2C3=C(COC3=O)N(C3CCCC3)c3cc4c(cc32)OCO4)cc(OC)c1O (centres unmarked) [Compound 30, 6,7-Methylenedioxy-4-(cyclopentyl)-9-(4-hydroxy-3,5-dimethoxy-phenyl)-4,9-dihydro-3H-furo[3,4-b]quinolin-1-one] | 30.3 (≈ 67.1 µM) | 0.53 (≈ 1.17 µM) | 0.32 (≈ 0.709 µM) | 0.39 (≈ 0.864 µM) | 0.33 (≈ 0.731 µM) | 2.1 (≈ 4.65 µM) | 0.41 (≈ 0.908 µM) | 
 |  |  |  |  |  |  | COc1cc(C2C3=C(COC3=O)N(CCc3ccc(F)cc3)c3cc4c(cc32)OCO4)cc(OC)c1O (centres unmarked) [Compound 31, 6,7-Methylenedioxy-4-[2-(4-fluorophenyl)-ethyl]-9-(4-hydroxy-3,5-dimethoxy-phenyl)-4,9-dihydro-3H-furo[3,4-b]quinolin-1-one] | 0.21 (≈ 0.415 µM) | 1.4 (≈ 2.77 µM) | 0.34 (≈ 0.673 µM) | 0.48 (≈ 0.95 µM) | 0.36 (≈ 0.712 µM) |  | 0.38 (≈ 0.752 µM) | 
 |  |  |  |  |  |  | COc1cc(C2C3=C(COC3=O)N(Cc3ccco3)c3cc4c(cc32)OCO4)cc(OC)c1O (centres unmarked) [Compound 32, 6,7-Methylenedioxy-4-(furan-2-ylmethyl)-9-(4-hydroxy-3,5-dimethoxy-phenyl)-4,9-dihydro-3H-furo[3,4-b]quinolin-1-one] | 0.89 (≈ 1.92 µM) | 1 (≈ 2.16 µM) | 0.054 (≈ 0.117 µM) | 0.061 (≈ 0.132 µM) | 0.24 (≈ 0.518 µM) |  | 0.39 (≈ 0.842 µM) | 
